Here are results for 1 compound from patent publication US4916122A, “3'-Azido-2',3'-dideoxyuridine anti-retroviral composition” (University of Georgia Research Foundation, Inc., priority 1987, dated 1990).

Test [1] addresses T1, Host cell α-DNA pol (Homo sapiens, UniProt P09884).
T1 sequence (P09884 1-1462): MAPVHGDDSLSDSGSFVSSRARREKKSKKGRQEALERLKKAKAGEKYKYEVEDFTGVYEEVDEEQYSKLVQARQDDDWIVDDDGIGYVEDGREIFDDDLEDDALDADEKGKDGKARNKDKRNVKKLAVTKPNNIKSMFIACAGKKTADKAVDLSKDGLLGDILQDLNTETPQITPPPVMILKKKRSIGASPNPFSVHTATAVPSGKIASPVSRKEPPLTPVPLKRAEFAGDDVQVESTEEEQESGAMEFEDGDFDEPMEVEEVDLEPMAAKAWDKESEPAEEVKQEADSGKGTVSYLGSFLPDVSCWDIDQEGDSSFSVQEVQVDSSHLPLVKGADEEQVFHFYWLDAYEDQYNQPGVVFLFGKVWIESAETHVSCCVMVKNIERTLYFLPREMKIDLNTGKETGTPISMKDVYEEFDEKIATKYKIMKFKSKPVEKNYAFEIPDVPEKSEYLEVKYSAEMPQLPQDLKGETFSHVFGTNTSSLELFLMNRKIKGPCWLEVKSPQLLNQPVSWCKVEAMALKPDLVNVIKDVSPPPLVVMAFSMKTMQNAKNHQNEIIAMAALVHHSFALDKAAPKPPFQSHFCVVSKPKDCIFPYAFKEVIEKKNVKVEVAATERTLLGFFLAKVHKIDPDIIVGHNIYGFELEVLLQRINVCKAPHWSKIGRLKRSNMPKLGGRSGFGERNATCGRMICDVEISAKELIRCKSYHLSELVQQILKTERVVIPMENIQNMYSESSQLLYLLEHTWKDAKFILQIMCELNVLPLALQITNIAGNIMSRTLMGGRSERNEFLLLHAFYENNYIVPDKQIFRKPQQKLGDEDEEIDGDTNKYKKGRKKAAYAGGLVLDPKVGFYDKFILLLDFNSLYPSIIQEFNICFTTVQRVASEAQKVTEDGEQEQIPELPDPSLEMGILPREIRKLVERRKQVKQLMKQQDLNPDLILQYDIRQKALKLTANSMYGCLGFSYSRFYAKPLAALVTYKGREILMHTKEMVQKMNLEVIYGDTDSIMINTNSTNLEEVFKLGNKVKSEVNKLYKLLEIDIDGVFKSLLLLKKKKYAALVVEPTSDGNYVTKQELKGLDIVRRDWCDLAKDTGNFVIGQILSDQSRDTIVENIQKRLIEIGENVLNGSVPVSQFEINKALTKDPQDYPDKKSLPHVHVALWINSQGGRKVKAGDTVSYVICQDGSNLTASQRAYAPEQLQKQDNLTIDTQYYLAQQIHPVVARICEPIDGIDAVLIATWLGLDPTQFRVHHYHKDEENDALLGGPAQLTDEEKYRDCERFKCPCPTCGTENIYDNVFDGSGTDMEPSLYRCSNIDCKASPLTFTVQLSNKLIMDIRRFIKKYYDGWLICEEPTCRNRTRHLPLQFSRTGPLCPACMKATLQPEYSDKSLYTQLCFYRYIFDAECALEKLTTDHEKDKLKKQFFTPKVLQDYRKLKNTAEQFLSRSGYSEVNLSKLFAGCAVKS
The test is described as follows: Effect of 5'-triphosphates on alpha DNA polymerase (Table 6). In kind it is biochemical. The settings on record: K1 host cell α-DNA pol / K1 HIV RT.

In another test the target is T2, HIV RT (Human immunodeficiency virus type 1 group M subtype B, UniProt P03367).
T2 construct: HIV reverse transcriptase
The settings on record: 5'-triphosphate; according to Furman et al.; read-out: HIV RT K1; cited from earlier work.

For test [2], the target named is T1, Host cell α-DNA pol. The note with it: 5'-triphosphate; according to Furman et al.; read-out: Host cell α-DNA pol K1; cited from earlier work.

On to `Cc1cn([C@H]2C[C@H](N=[N+]=[N-])[C@@H](CO[P@](=O)(O)O[P@](=O)(O)OP(=O)(O)O)O2)c(=O)[nH]c1=O` [AZT-TP], for which the “Ratio: Cellular/HIV” value at Host cell α-DNA pol [1] is listed as 5,750. Moreover, the Ki is 0.04 µM at HIV RT and 230 µM on Host cell α-DNA pol [2].
